Test results reported in patent US20110136819A1, “6-THIOXOPYRIDAZINE DERIVATIVES” (MERCK PATENT GESELLSCHAFT MIT BESCHRÄNKTER HAFTUNG, priority 2007, published 2011).
pIC50: −log10 of the molar value. Counter-ions that a name gives are not always drawn.

The molecules below were run against T1, Met kinase (Homo sapiens, UniProt P08581) (assay: Met kinase inhibition (enzyme assay), flashplate method). Conditions: 33P-ATP, substrate pAGLT, 3 hrs at room temperature.
T1 construct: 6His (N); purchased Upstate 14-526; host or cells: Sf21 insect cells (S. frugiperda), baculovirus
T1 sequence (P08581 25-1390): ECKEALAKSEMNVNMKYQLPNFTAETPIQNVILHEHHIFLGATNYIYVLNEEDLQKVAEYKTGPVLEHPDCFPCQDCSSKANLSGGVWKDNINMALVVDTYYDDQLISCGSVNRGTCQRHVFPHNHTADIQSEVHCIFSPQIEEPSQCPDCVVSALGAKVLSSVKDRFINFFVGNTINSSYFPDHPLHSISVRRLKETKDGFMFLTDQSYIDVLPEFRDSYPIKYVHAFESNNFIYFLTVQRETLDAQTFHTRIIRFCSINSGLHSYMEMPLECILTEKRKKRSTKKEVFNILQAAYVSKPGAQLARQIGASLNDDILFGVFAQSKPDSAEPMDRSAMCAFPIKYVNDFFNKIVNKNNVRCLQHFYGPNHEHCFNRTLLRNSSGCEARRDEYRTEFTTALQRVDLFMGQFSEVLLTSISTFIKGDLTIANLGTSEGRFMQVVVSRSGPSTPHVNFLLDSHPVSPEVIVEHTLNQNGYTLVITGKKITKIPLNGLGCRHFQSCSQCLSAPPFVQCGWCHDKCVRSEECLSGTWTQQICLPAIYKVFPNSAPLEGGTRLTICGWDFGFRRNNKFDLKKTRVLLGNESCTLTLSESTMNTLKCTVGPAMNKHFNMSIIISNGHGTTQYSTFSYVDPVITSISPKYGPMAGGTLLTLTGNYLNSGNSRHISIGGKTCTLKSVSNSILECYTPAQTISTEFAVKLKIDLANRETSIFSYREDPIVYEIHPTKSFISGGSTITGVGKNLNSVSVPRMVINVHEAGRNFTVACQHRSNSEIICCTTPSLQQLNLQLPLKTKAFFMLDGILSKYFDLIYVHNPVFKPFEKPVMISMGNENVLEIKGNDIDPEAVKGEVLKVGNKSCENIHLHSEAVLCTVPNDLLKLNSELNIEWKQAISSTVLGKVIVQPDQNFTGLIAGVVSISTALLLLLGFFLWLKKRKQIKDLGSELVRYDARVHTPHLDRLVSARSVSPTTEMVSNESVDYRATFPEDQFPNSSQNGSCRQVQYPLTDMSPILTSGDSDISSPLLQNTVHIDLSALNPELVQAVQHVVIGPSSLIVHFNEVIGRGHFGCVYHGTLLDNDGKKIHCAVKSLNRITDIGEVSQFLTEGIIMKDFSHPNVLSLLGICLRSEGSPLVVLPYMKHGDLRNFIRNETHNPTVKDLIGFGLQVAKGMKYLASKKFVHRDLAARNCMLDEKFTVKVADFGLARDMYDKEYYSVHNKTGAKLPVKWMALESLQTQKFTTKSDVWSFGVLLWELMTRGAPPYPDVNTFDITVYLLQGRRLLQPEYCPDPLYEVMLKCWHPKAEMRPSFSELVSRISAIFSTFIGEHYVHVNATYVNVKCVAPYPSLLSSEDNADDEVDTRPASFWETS
Format: biochemical
From the text: According to the manufacturer's data (Met, active, upstate, catalogue no. 14-526), Met kinase is expressed for the purposes of protein production in insect cells (Sf21; S. frugiperda) and subsequent affinity-chromatographic purification as “N-terminal 6His-tagged” recombinant human protein in a baculovirus expression vector.
The test plates used are 96-well Flashplate® microtitre plates from Perkin Elmer (Cat. No. SMP200). The components of the kinase reaction described below are pipetted into the assay plate. The Met kinase and the substrate poly Ala-Glu-Lys-Tyr, (pAGLT, 6:2:5:1), are incubated for 3 hrs at room temperature with radioactively labelled ^33P-ATP in the presence and absence of test substances in a total volume of 100 μl. The reaction is terminated using 150 μl of a 60 mM EDTA solution. After incubation for a further 30 min at room temperature, the supernatants are filtered off with suction, and the wells are washed three times with 200 μl of 0.9% NaCl solution each time. The measurement of the bound radioactivity is carried out by means of a scintillation measuring instrument (Topcount NXT, Perkin-Elmer).
The full value used is the inhibitor-free kinase reaction. This should be approximately in the range 6000-9000 cpm. The pharmacological zero value used is staurosporin in a final concentration of 0.1 mM. The inhibitory values (IC50) are determined using the RS1_MTS program.
30 μl of assay buffer 10 μl of substance to be tested in assay buffer with 10% of DMSO 10 μl of ATP (final concentration 1 μM cold, 0.35 μCi of ^33P-ATP) 50 μl of Met kinase/substrate mixture in assay buffer; • (10 ng of enzyme/well, 50 ng of pAGLT/well)
Assay Buffer: • 50 mM HEPES • 3 mM magnesium chloride • 3 μM sodium orthovanadate • 3 mM manganese(II) chloride • 1 mM dithiothreitol (DTT) • pH=7.5 (to be set using sodium hydroxide)
Stop Solution: • 60 mM Titriplex III (EDTA) • ^33P-ATP: Perkin-Elmer; • Met kinase: Upstate, Cat. No. 14-526, Stock 1 μg/10 μl; spec. activity 954 U/mg; • Poly-Ala-Glu-Lys-Tyr, 6:2:5:1: Sigma Cat. No. P1152
Molecule `Cc1cnc(-c2cccc(Cn3nc(-c4cccc(Cl)c4)ccc3=S)c2)s1` [Compound A4, 6-(3-chlorophenyl)-2-[3-(5-methylthiazol-2-yl)benzyl]-2H-pyridazine-3-thione] has a pIC50 of 6.00 to 8.00. Molecule `Cc1cnc(-c2cccc(Cn3nc(-c4cc(F)cc(F)c4)ccc3=S)c2)s1` [Compound A3, 6-(3,5-difluorophenyl)-2-[3-(5-methylthiazol-2-yl)-benzyl]-2H-pyridazine-3-thione] has a pIC50 of 6.00 to 8.00. For `CN1CCN(CCCOC(=O)Nc2cccc(Cn3nc(-c4cc(F)c(F)c(F)c4)ccc3=S)c2)CC1` [Compound A2, 3-(4-methylpiperazin-1-yl)propyl{3-[6-thioxo-3-(3,4,5-trifluorophenyl)-6H-pyridazin-1-ylmethyl]phenyl}carbamate formate], the pIC50 was 6.00 to 8.00. For `CN1CCN(CCCOC(=O)Nc2cccc(Cn3nc(-c4cc(F)cc(F)c4)ccc3=S)c2)CC1` [Compound A1, 3-(4-methylpiperazin-1-yl)propyl{3-[6-thioxo-3-(3,5-difluorophenyl)-6H-pyridazin-1-ylmethyl]phenyl}carbamate], the pIC50 was 6.00 to 8.00.
